Key:
[1] = biological target: T1, Human PDGFRα, cytoplasmic domain (GST-PDGFRα) (Homo sapiens, UniProt P16234); test: Human PDGFRα biochemical inhibition assay (off-chip Mobility Shift Assay)
T1 construct: made in house

[2] = biological target: T2, Human PDGFRβ, cytoplasmic domain (GST-PDGFRβ) (Homo sapiens, UniProt P09619); test: Human PDGFRβ biochemical inhibition assay (off-chip Mobility Shift Assay)
T2 construct: made in house
Outline: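 GST-tagged cytoplasmic domain (aa 557-1106) from baculovirus was incubated 1 h at room temperature with compound, CSKtide, ATP at Km and Mg²⁺ in HEPES buffer, pH 7.5. Phosphorylated and unphosphorylated peptide were separated by off-chip mobility shift, and the product ratio P/(P+S) gave percent inhibition.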

T1 sequence (P16234 550-1089 T674I): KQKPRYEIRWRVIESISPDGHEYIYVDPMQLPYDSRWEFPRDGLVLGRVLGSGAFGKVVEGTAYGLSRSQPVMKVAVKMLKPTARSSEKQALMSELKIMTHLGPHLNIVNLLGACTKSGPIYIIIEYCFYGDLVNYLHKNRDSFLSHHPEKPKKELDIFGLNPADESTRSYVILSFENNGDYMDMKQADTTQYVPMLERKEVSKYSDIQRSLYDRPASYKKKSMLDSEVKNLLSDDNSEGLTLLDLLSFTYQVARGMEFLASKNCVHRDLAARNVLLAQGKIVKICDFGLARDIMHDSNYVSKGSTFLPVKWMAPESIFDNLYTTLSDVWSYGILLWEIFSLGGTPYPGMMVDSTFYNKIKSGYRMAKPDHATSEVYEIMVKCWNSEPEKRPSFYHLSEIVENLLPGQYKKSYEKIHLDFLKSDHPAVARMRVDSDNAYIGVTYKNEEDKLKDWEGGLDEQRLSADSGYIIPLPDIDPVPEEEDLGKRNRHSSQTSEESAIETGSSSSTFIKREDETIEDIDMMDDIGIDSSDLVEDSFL
T2 sequence (P09619 with tags, fused parts or gaps): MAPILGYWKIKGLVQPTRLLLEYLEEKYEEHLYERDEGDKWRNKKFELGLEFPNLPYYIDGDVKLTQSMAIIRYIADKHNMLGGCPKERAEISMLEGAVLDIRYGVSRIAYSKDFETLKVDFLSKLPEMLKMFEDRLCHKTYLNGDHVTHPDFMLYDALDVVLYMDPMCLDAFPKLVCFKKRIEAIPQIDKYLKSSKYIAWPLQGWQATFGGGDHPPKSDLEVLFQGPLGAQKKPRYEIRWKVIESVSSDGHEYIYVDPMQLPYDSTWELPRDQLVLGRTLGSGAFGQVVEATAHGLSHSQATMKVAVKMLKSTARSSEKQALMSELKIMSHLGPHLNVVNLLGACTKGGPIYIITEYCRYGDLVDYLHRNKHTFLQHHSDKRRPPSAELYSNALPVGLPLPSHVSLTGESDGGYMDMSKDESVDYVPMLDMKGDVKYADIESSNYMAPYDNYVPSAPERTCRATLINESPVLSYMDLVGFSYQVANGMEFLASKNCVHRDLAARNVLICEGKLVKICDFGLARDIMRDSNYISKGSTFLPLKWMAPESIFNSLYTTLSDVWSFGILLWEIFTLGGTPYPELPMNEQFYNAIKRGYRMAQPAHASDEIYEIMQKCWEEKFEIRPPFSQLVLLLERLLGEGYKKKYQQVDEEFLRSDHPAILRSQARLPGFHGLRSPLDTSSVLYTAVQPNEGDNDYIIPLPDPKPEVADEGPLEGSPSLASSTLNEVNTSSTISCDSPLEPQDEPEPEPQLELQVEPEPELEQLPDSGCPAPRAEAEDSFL

Compound | IC50 [1] | IC50 [2]
C[C@H](Nc1cnc2cnn(C)c2n1)c1cccc(NC(=O)c2ccc(S(C)(=O)=O)nc2)c1 [Compound 221, (S)-N-(3-(1-((1-methyl-1H-pyrazolo[3,4-b]pyrazin-6-yl)amino)ethyl)phenyl)-6-(methylsulfonyl)nicotinamide] | < 300 nM | < 300 nM
COC(=O)c1ccc(C(=O)Nc2cccc([C@H](C)Nc3cnc4cnn(C)c4n3)c2)cc1 [Compound 211, methyl (S)-4-((3-(1-((1-methyl-1H-pyrazolo[3,4-b]pyrazin-6-yl)amino)ethyl)phenyl)carbamoyl) benzoate] | < 300 nM | < 300 nM
COc1ccc(Cn2ccc3ncc(N[C@@H](C)c4cccc(NC(=O)c5cncc(C)c5)c4)cc32)cc1OC [Compound 81, (S)-N-(3-(1-((1-(3,4-dimethoxybenzyl)-1H-pyrrolo [3,2-b]pyridin-6-yl)amino)ethyl)phenyl)-5-methylnicotinamide] | ≥ 1000 nM | ≥ 1000 nM
COC(=O)c1ccc(C(=O)Nc2cccc([C@H](C)Nc3cnc4cnn(C)c4n3)c2)cc1Br [Compound 197, methyl (S)-2-bromo-4-((3-(1-((1-methyl-1H-pyrazolo[3,4-b]pyrazin-6-yl)amino)ethyl)phenyl)carbamoyl)benzoate] | < 300 nM | < 300 nM
CCn1cc2ncc(N[C@@H](C)c3cccc(NC(=O)Nc4cncc(C)c4)c3)nc2n1 [Compound 732, (S)-1-(3-(1-((2-ethyl-2H-pyrazolo[3,4-b]pyrazin-6-yl)amino)ethyl)phenyl)-3-(5-methylpyridin-3-yl)urea] | < 300 nM | 300 to 1000 nM
CCn1cc2ncc(N[C@@H](C)c3cccc(NC(=O)c4ccc5c(c4)CN(C)C5)c3)nc2n1 [Compound 449, (S)-N-(3-(1-((2-ethyl-2H-pyrazolo[3,4-b]pyrazin-6-yl)amino)ethyl)phenyl)-2-methylisoindoline-5-carboxamide] | 300 to 1000 nM | ≥ 1000 nM
CC(C)c1cc(C(=O)Nc2cccc([C@H](C)Nc3cnc4cnn(C)c4n3)c2)n[nH]1 [Compound 161, (S)-5-isopropyl-N-(3-(1-((1-methyl-1H-pyrazolo[3,4-b]pyrazin-6-yl)amino)ethyl)phenyl)-1H-pyrazole-3-carboxamide] | < 300 nM | < 300 nM
Cc1cc(C(=O)Nc2cccc([C@H](C)Nc3cnc4cnn(C)c4n3)c2)ccc1C(=O)OCc1oc(=O)oc1C [Compound 267, (5-methyl-2-oxo-1,3-dioxol-4-yl)methyl (S)-2-methyl-4-((3-(1-((1-methyl-1H-pyrazolo[3,4-b]pyrazin-6-yl)amino)ethyl)phenyl)carbamoyl)benzoate] | < 300 nM | < 300 nM
C[C@H](Nc1cnc2[nH]ccc2n1)c1cc(NC(=O)c2cnn(C3CCC3)c2)ccc1F [Compound 597, (S)-N-(3-(1-((5H-pyrrolo[2,3-b]pyrazin-2-yl)amino)ethyl)-4-fluorophenyl)-1-cyclobutyl-1H-pyrazole-4-carboxamide] | < 300 nM | < 300 nM
Cc1n[nH]c2ncc(N[C@@H](C)c3cccc(NC(=O)c4cc(C(F)(F)F)nn4C)c3)nc12 [Compound 548, (S)-1-methyl-N-(3-(1-((3-methyl-1H-pyrazolo[3,4-b]pyrazin-5-yl)amino)ethyl)phenyl)-3-(trifluoromethyl)-1H-pyrazole-5-carboxamide] | < 300 nM | < 300 nM
CCn1cc2ncc(N[C@@H](C)c3cccc(NC(=O)c4ccc(Cl)c(C)c4)c3)nc2n1 [Compound 345, (S)-4-chloro-N-(3-(1-((2-ethyl-2H-pyrazolo[3,4-b]pyrazin-6-yl)amino)ethyl)phenyl)-3-methylbenzamide] | < 300 nM | < 300 nM
CSc1ccc(C(=O)Nc2cccc([C@H](C)Nc3cnc4cnn(C)c4n3)c2)cc1C [Compound 222, (S)-3-methyl-N-(3-(1-((1-methyl-1H-pyrazolo[3,4-b]pyrazin-6-yl)amino)ethyl)phenyl)-4-(methylthio)benzamide] | < 300 nM | < 300 nM
C[C@H](Nc1cnc2[nH]cc(-c3cnn(C)c3)c2n1)c1cccc(NC(=O)c2cc(C(F)(F)F)nn2C)c1 [Compound 584, (S)-1-methyl-N-(3-(1-((7-(1-methyl-1H-pyrazol-4-yl)-5H-pyrrolo[2,3-b]pyrazin-2-yl)amino)ethyl)phenyl)-3-(trifluoromethyl)-1H-pyrazole-5-carboxamide] | 300 to 1000 nM | 300 to 1000 nM
Cc1cc(C(=O)Nc2cccc([C@H](C)Nc3cnc4cnn(C)c4n3)c2)ccc1CN1CCSCC1 [Compound 237, (S)-3-methyl-N-(3-(1-((1-methyl-1H-pyrazolo[3,4-b]pyrazin-6-yl)amino)ethyl)phenyl)-4-(thiomorpholinomethyl) benzamide] | < 300 nM | < 300 nM
CCn1cc2ncc(N[C@@H](C)c3cccc(NC(=O)Cc4cccc(C(F)(F)F)n4)c3)nc2n1 [Compound 642, (S)-N-(3-(1-((2-ethyl-2H-pyrazolo[3,4-b]pyrazin-6-yl)amino)ethyl)phenyl)-2-(6-(trifluoromethyl)pyridin-2-yl) acetamide] | < 300 nM | 300 to 1000 nM
CCn1cc2ncc(N[C@@H](C)c3cc(NC(=O)c4cnc5ccccc5c4)ccc3F)nc2n1 [Compound 63, (S)-N-(3-(1-((2-ethyl-2H-pyrazolo[3,4-b]pyrazin-6-yl)amino)ethyl)-4-fluorophenyl) quinoline-3-carboxamide] | < 300 nM | < 300 nM
Cc1cncc(C(=O)Nc2cccc([C@H](C)Nc3cnc4ccccc4c3)c2)c1 [Compound 2, (S)-5-methyl-N-(3-(1-(quinolin-3-ylamino)ethyl)phenyl)nicotinamide] | < 300 nM | 300 to 1000 nM
Cc1cncc(C(=O)Nc2cccc([C@H](C)Nc3cnc4[nH]cc(C)c4n3)c2)c1 [Compound 15, (S)-5-methyl-N-(3-(1-((7-methyl-5H-pyrrolo[2,3-b]pyrazin-2-yl)amino)ethyl)phenyl)nicotinamide] | < 300 nM | < 300 nM
Cc1cc(C(=O)Nc2cccc([C@H](C)Nc3cnc4cnn(C)c4n3)c2)cnc1OC(C)C [Compound 248, (S)-6-isopropoxy-5-methyl-N-(3-(1-((1-methyl-1H-pyrazolo[3,4-b]pyrazin-6-yl)amino)ethyl)phenyl) nicotinamide] | < 300 nM | < 300 nM
CCn1cc2ncc(N[C@@H](C)c3cccc(NC(=O)c4ccc(C#N)cc4)c3)nc2n1 [Compound 346, (S)-4-cyano-N-(3-(1-((2-ethyl-2H-pyrazolo[3,4-b]pyrazin-6-yl)amino)ethyl)phenyl)benzamide] | 300 to 1000 nM | 300 to 1000 nM
CCn1cc2ncc(N[C@@H](C)c3cccc(NC(=O)c4ccc(CN5CC(O)C5)c(Cl)c4)c3)nc2n1 [Compound 487, (S)-3-chloro-N-(3-(1-((2-ethyl-2H-pyrazolo[3,4-b]pyrazin-6-yl)amino)ethyl)phenyl)-4-((3-hydroxyazetidin-1-yl)methyl) benzamide] | < 300 nM | < 300 nM
CCn1cc2ncc(N[C@@H](C)c3cccc(NC(=O)c4cnc(N5CCCC5)c(C)c4)c3)nc2n1 [Compound 323, (S)-N-(3-(1-((2-ethyl-2H-pyrazolo[3,4-b]pyrazin-6-yl)amino)ethyl)phenyl)-5-methyl-6-(pyrrolidin-1-yl)nicotinamide] | < 300 nM | < 300 nM
Cc1cc(C(=O)Nc2ccc(F)c([C@H](C)Nc3cnc4cnn(C)c4n3)c2)cnc1NC(C)C [Compound 232, (S)-N-(4-fluoro-3-(1-((1-methyl-1H-pyrazolo[3,4-b]pyrazin-6-yl)amino)ethyl)phenyl)-6-(isopropylamino)-5-methylnicotinamide] | < 300 nM | < 300 nM
CCn1cc2ncc(N[C@@H](C)c3cccc(NC(=O)Cc4cccc(C(F)(F)F)c4)c3)nc2n1 [Compound 630, (S)-N-(3-(1-((2-ethyl-2H-pyrazolo[3,4-b]pyrazin-6-yl)amino)ethyl)phenyl)-2-(3-(trifluoromethyl)phenyl) acetamide] | < 300 nM | 300 to 1000 nM
CCn1cc2ncc(N[C@@H](C)c3cccc(NC(=O)Cc4ccc(F)c(C)c4)c3)nc2n1 [Compound 632, (S)-N-(3-(1-((2-ethyl-2H-pyrazolo[3,4-b]pyrazin-6-yl)amino)ethyl)phenyl)-2-(4-fluoro-3-methylphenyl) acetamide] | < 300 nM | < 300 nM
CCn1cc2ncc(N[C@@H](C)c3cccc(NC(=O)Cc4cccc(F)c4F)c3)nc2n1 [Compound 454, (S)-2-(2,3-difluorophenyl)-N-(3-(1-((2-ethyl-2H-pyrazolo[3,4-b]pyrazin-6-yl)amino)ethyl)phenyl)acetamide] | < 300 nM | 300 to 1000 nM
CCn1cc2ncc(N[C@@H](C)c3cc(NC(=O)Cc4ccc(C)c(N5CCN(C)CC5)c4)ccc3C)nc2n1 [Compound 680, (S)-N-(3-(1-((2-ethyl-2H-pyrazolo[3,4-b]pyrazin-6-yl)amino)ethyl)-4-methylphenyl)-2-(4-methyl-3-(4-methylpiperazin-1-yl)phenyl) acetamide] | < 300 nM | < 300 nM
CCn1cc2ncc(N[C@@H](C)c3cccc(NC(=O)Cc4cccc(F)c4)c3)nc2n1 [Compound 625, (S)-N-(3-(1-((2-ethyl-2H-pyrazolo[3,4-b]pyrazin-6-yl)amino)ethyl)phenyl)-2-(3-fluorophenyl)acetamide] | < 300 nM | 300 to 1000 nM
CCn1cc2ncc(N[C@@H](C)c3cc(NC(=O)Cc4ccc(C5CCC5)cn4)ccc3C)nc2n1 [Compound 669, (S)-2-(5-cyclobutylpyridin-2-yl)-N-(3-(1-((2-ethyl 2H-pyrazolo[3,4-b]pyrazin-6-yl)amino)ethyl)-4-methylphenyl) acetamide] | < 300 nM | 300 to 1000 nM
Cc1cc2ncc(N[C@@H](C)c3cc(NC(=O)c4ccc(C(F)(F)F)nc4)ccc3F)nc2o1 [Compound 614, (S)-N-(4-fluoro-3-(1-((6-methylfuro[2,3-b]pyrazin-3-yl)amino)ethyl)phenyl)-6-(trifluoromethyl)nicotinamide] | < 300 nM | < 300 nM

From patent US20230102554A1 (GB002, INC., priority 2019, published 2023)
